The target of one assay is T1, TBK1 (Homo sapiens, UniProt Q9UHD2).
T1 construct: TBK1 and IKKε were expressed and purified as full length recombinant proteins; made in house
T1 sequence (Q9UHD2 1-729): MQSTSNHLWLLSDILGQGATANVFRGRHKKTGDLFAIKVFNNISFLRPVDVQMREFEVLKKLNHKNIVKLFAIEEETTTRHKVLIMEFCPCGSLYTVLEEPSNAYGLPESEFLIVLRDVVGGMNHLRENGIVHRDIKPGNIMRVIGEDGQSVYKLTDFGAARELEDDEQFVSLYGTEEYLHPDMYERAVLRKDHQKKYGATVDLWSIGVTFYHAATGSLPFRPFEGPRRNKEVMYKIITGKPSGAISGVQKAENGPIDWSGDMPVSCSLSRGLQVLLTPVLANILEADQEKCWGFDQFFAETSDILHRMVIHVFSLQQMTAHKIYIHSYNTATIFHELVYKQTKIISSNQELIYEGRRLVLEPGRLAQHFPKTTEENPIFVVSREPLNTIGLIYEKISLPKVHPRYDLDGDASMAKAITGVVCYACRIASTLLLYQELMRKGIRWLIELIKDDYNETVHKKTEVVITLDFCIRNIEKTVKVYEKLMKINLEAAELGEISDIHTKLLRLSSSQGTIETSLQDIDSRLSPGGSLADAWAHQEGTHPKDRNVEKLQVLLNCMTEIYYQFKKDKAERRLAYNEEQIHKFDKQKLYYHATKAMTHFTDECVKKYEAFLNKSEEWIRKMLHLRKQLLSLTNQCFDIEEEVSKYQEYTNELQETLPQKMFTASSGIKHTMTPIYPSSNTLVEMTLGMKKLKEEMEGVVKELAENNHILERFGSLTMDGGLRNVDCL
The assay is described as follows: TR-FRET enzymatic activity assay, TBK1. Also: full length recombinant TBK1 at 2.5 nM. It is filed as biochemical. Put shortly:
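TR-FRET detected phosphorylation of a biotinylated serine/threonine peptide using 125 nM streptavidin XL665 plus europium-labelled anti-phospho antibody. Reactions with full-length recombinant kinase ran 240 min at 25 °C before EDTA quench. Values are geometric-mean IC50s (n ≥ 4) from four-parameter dose-response fits against staurosporine and DMSO controls.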
In general terms: Time-resolved FRET reads energy transfer from a long-lived donor to a nearby acceptor.

A further assay concerns the target T2, IKKε (Homo sapiens, UniProt Q14164).
T2 construct: TBK1 and IKKε were expressed and purified as full length recombinant proteins; made in house
T2 sequence (Q14164 1-716): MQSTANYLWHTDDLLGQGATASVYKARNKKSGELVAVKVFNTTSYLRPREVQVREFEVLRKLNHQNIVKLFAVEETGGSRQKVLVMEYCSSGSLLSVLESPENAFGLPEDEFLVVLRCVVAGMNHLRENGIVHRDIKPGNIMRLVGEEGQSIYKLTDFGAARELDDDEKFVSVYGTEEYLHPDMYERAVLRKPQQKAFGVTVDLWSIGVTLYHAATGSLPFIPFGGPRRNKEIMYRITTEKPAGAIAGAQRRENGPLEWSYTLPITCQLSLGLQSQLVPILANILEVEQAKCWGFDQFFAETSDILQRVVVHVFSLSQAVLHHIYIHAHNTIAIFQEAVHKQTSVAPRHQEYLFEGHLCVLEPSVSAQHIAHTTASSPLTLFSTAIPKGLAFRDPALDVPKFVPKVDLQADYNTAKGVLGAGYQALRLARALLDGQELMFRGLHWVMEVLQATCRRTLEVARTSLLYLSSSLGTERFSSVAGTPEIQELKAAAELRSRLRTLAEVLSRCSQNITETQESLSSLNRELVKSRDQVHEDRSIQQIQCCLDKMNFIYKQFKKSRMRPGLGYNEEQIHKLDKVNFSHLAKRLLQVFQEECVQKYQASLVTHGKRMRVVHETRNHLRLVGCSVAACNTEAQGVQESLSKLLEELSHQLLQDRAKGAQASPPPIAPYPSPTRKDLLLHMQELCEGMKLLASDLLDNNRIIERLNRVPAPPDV
Briefly: TR-FRET enzymatic activity assay, IKKε. Also: full length recombinant IKKε at 0.3 nM. The assay is classed as biochemical. To be noted: read-out: IKKϵ IC50. Put shortly:
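IC50 values are geometric means of at least four determinations, fitted to a four-parameter curve after normalising to 1 μM staurosporine and DMSO. Signal: Eu-cryptate anti-phospho antibody plus 125 nM streptavidin-XL665 on a biotinylated peptide. Full-length recombinant enzyme reacted 240 min, 25 °C, then EDTA-quenched.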

Where only a bound is given, the exact number is not on record here.

One may read the IC50 as the concentration that inhibits the measured activity by half.

As for `C[C@H](O)C(=O)N1CC[C@H](Oc2ccc(-c3ccnc(NC(=O)C4CC4)c3)cc2C#N)C(F)(F)C1` [Example 11, N-(4-(3-cyano-4-(((S)-3,3-difluoro-1-((S)-2 hydroxypropanoyl)piperidin-4-yl)oxy)phenyl)pyridin-2-yl)cyclopropanecarboxamide], the IC50 turned out to be 0.0102 µM against TBK1 and 0.0263 µM at IKKε.
On to `N#Cc1cc(-c2ccnc(NC(=O)C3CC3)c2)ccc1O[C@H]1CCN(C(=O)[C@@H](O)CO)CC1(F)F` [Example 157, N-(4-(3-cyano-4-(((S)-1-((S)-2,3-dihydroxypropanoyl)-3,3-difluoropiperidin-4-yl)oxy)phenyl)pyridin-2-yl)cyclopropanecarboxamide], for which the concentration for half-maximal inhibition (IC50) was determined as 0.0044 µM on TBK1 and 0.0047 µM on IKKε.
The matching figures for `N#Cc1cc(-c2cc(NC(=O)C3CC3)ncn2)ccc1F` [Example 105, N-(6-(3-cyano-4-fluorophenyl)pyrimidin-4-yl)cyclopropanecarboxamide]: > 1 µM and > 1 µM.
The matching figures for `CC(C)(C)OC(=O)N1CC[C@H](Oc2ccc(-c3cc(NC(=O)C4CC4)ncn3)cc2C#N)C(F)(F)C1` [Example 104, Tert-butyl (S)-4-(2-cyano-4-(6-(cyclopropanecarboxamido)pyrimidin-4-yl)phenoxy)-3,3-difluoropiperidine-1-carboxylate]: > 1 µM and > 1 µM.
For `N#Cc1cc(-c2cc(NC(=O)C3CC3)ncn2)ccc1OC1CCOCC1` [Example 6, N-(6-(3-cyano-4-((tetrahydro-2H-pyran-4-yl)oxy)phenyl)pyrimidin-4-yl)cyclopropanecarboxamide], in that order: 0.0485 µM and 0.298 µM.
On to `CCOC(=O)[C@@H]1C[C@H]1C(=O)Nc1cc(-c2ccc(OC3CCOCC3)c(C#N)c2)ccn1` (relative stereo) [Example 50, Ethyl trans-2-((4-(3-cyano-4-((tetrahydro-2H-pyran-4-yl)oxy)phenyl)pyridin-2-yl)carbamoyl)cyclopropane-1-carboxylate], for which the half-inhibitory concentration (IC50) at TBK1 worked out at 0.23 µM; on IKKε, 0.535 µM.
For `N#Cc1cc(-c2ccnc(NC(=O)[C@H]3C[C@@H]3c3cccnc3)c2)ccc1OC1CCOCC1` (relative stereo) [Example 100, (1,2-trans)-N-(4-(3-cyano-4-((tetrahydro-2H-pyran-4-yl)oxy)phenyl)pyridin-2-yl)-2-(pyridin-3-yl)cyclopropane-1-carboxamide], in that order: 0.0203 µM and 0.13 µM.
The matching figures for `N#Cc1cc(-c2ccnc(NC(=O)[C@@H]3C[C@H]3C#N)c2)ccc1OC1CCOCC1` (relative stereo) [Example 116, (1,2-Trans)-2-cyano-N-(4-(3-cyano-4-((tetrahydro-2H-pyran-4-yl)oxy)phenyl)pyridin-2-yl)cyclopropane-1-carboxamide]: 0.181 µM and 0.471 µM.
With `N#Cc1cc(-c2ccnc(NC(=O)[C@H]3C[C@@H]3C3CC3)c2)ccc1OC1CCOCC1` (relative stereo) [Example 88, (1,2-trans)-N-(4-(3-cyano-4-((tetrahydro-2H-pyran-4-yl)oxy)phenyl)pyridin-2-yl)-[1,1′-bi(cyclopropane)]-2-carboxamide], the results for the IC50 on TBK1 and at IKKε were 0.0588 µM and 0.314 µM, respectively.
`CC1CC1C(=O)Nc1cc(-c2ccc(O[C@H]3CCN(C(=O)CO)C[C@H]3F)c(C#N)c2)ccn1` (stereo partly drawn) [Example 70, N-(4-(3-Cyano-4-(((3R,4S)-3-fluoro-1-(2-hydroxyacetyl)piperidin-4-yl)oxy)phenyl)pyridin-2-yl)-2-methylcyclopropanecarboxamide]: the IC50 is 0.0089 µM against TBK1 and 0.0261 µM on IKKε.
For `N#Cc1cc(-c2ccnc(NC(=O)C3CC3c3nc[nH]n3)c2)ccc1O[C@H]1CCN(C(=O)CO)C[C@H]1F` (stereo partly drawn) [Example 76, N-(4-(3-Cyano-4-(((3R,4S)-3-fluoro-1-(2-hydroxyacetyl)piperidin-4-yl)oxy)phenyl)pyridin-2-yl)-2-(1H-1,2,4-triazol-3-yl)cyclopropane-1-carboxamide], in that order: 0.256 µM and 0.357 µM.
For the molecule `N#Cc1cc(-c2ccnc(NC(=O)[C@H]3C[C@@H]3c3ccc(OC(F)(F)F)cc3)c2)ccc1OC1CCOCC1` (relative stereo) [Example 99, (1,2-trans)-N-(4-(3-cyano-4-((tetrahydro-2H-pyran-4-yl)oxy)phenyl)pyridin-2-yl)-2-(4-(trifluoromethoxy)phenyl)cyclopropane-1-carboxamide], the half-inhibitory concentration (IC50) on TBK1 and on IKKε was > 1 µM throughout.

The values are drawn from patent US10316049B2, “Tank-binding kinase inhibitor compounds” (Gilead Sciences, Inc., priority 2015, dated 2019).
